This is an account of results in US7569572B2, “Pyrazolo[4,3-D]pyrimidines” (Pfizer Inc, priority 2004, dated 2009).

In this test the target is T1, human platelet PDE5 (Homo sapiens, UniProt O76074).
T1 construct: utilizes PDE5 isolated from human platelets; from tissue; host or cells: human platelets
The experiment in a line: Method A: PDE-5 Inhibition Scintillation Proximity Assay (SPA) - Human Platelet. Type of test: biochemical. The conditions noted are these: cGMP substrate 500 nM, PDE5 isolated from human platelets. From the text:
Method A: PDE-5 Inhibition Scintillation Proximity Assay (SPA)—Human Platelet
The assay measures the inhibition of human platelet PDE5 enzyme activity by a test compound in an in vitro assay that utilizes PDE5 isolated from human platelets. The PDE5 enzyme can be isolated from platelets essentially by a modification of the method of Thompson, W J et al.; Biochemistry 18(23), 5228-5237, 1979, as described by Ballard S A et al.; J. Urology 159(6), 2164-2171, 1998. PDE5 catalyzes the hydrolysis of [^3H]cGMP to the 5′ nucleotide [^3H]GMP. [^3H]GMP binds to yttrium silicate SPA beads and is detected by scintillation counting. […] The inhibition of enzyme activity is calculated relative to total PDE5 activity of uninhibited controls.
PDE5 IC50 Assay: 96-Well Microtiter Plate Format
Buffer A: 20 mM Tris-HCl, 5 mM MgCl2, pH 7.4
Buffer B: 2 mg/ml BSA in Buffer A (enzyme buffer)
cGMP substrate: Final concentration of 500 nM in assay
The amount of ^3H-labeled substrate added depends upon the specific activity of [^3H]cGMP, and it is diluted with a 10 mM stock of cold cGMP in Buffer A for a final substrate concentration of 500 nM in the assay.
PDE enzyme: Prepared in Buffer B. The dilution factor is determined by enzyme activity.
SPA beads: 20 mg/ml suspension prepared in dH2O.
Stocks of standard and test compounds are prepared at 5 mM in 100% DMSO. Compounds are serially diluted in separate dilution plates using a 10-point ½ log dilution format. 2 μl of the compound dilutions are added in duplicate to the wells of the assay plate; 2 μl of 100% DMSO are added to designated control wells. 25 μl of Buffer A are added to all wells. 25 μl of Buffer B are added to the negative control wells, and 25 μl of enzyme are added to the remaining wells. 50 μl of substrate are added to each well. Plates are sealed and incubated for 60 minutes on a plate shaker at 30 C. 50 μl of SPA beads are added to stop the reaction. The plates are again sealed and shaken for 15 minutes to allow the beads to bind the GMP product. The beads are allowed to settle for 30 minutes and then read on a NXT TopCount. Data is analyzed with the ECADA application. In this analysis, % inhibition is calculated: (mean maximum−compound value/(mean maximum−mean minimum)×100. IC50s are determined from sigmoid dose-response curves of enzyme activity vs compound concentration.
For orientation: SPA uses beads or plates that emit light when radiolabelled molecules are held near them.

Structures are written as SMILES. Structures can show the parent of a compound that is named as a salt.

A word on the IC50: it is the concentration that gives 50% inhibition. Consider `CCOCCn1nc(CNC)c2nc(N(C)CCOC)nc(Nc3cc(C)ccn3)c21` [Example 37, 1-(2-ethoxyethyl)-N^5-(2-methoxyethyl)-N^5-methyl-3-(methylaminomethyl)-N^7-(4-methylpyridin-2-yl)-1H-pyrazolo[4,3-d]pyrimidine-5,7-diamine hydrochloride], for which inhibition was half-maximal at 4.4 nM (IC50). The same measure for `CCOCCn1nc(CN2CCC[C@@H]2COC)c2nc(N(C)C)nc(Nc3cc(C)ccn3)c21` [Example 19]: 4.3 nM; for `CCOCCn1nc(CN2CCCC2)c2nc(N(C)C)nc(Nc3cc(C)ccn3)c21` [Example 25]: 5.2 nM; for `CCOCCn1nc(CN2CCC[C@H]2COC)c2nc(N(C)C)nc(Nc3cc(C)ccn3)c21` [Example 20]: 2.1 nM. For `CCOCCn1nc(CNC(=O)CC)c2nc(NC)nc(Nc3cc(C)ccn3)c21` [Example 10] the value was 2.5 nM. For `CCOCCn1nc(CNC)c2nc(N(C)C)nc(Nc3cnccn3)c21` [Example 17, 1-(2-ethoxyethyl)-N^5,N^5-dimethyl-3-(methylaminomethyl)-N^7-(pyrazin-2-yl)-1H-pyrazolo[4,3-d]pyrimidine-5,7-diamine hydrochloride] the value was over 100 nM; for `CCNc1nc(Nc2cc(C)ccn2)c2c(n1)c(CNC(=O)CO)nn2CCOCC` [Example 5], 0.58 nM; for `CCOCCn1nc(CNC(=O)CC)c2nc(N(C)C)nc(Nc3cc(C)ccn3)c21` [Example 9, N-[5-dimethylamino-1-(2-ethoxyethyl)-7-(4-methylpyridin-2-ylamino)-1H-pyrazolo[4,3-d]pyrimidin-3-ylmethyl]propionamide], 0.33 nM. Turning to `CCCN(Cc1nn(CCOCC)c2c(Nc3cc(C)ccn3)nc(N(C)C)nc12)C(C)=O` [Example 39, N-[5-Dimethylamino-1-(2-ethoxyethyl)-7-(4-methylpyridin-2-ylamino)-1H-pyrazolo[4,3-d]pyrimidin-3-ylmethyl]-N-propylacetamide], half-maximal inhibition (IC50) required 1.53 nM. Take `CCOCCn1nc(CNC)c2nc(N(C)CCO)nc(Nc3cc(C)ccn3)c21` [Example 36, 2-{[1-(2-ethoxyethyl)-3-(methylaminomethyl)-7-(4-methylpyridin-2-ylamino)-1H-pyrazolo[4,3-d]pyrimidin-5-yl]methylamino}ethanol hydrochloride]: the IC50 stood at 188 nM. For `CCNc1nc(Nc2cc(C)ccn2)c2c(n1)c(CNC(=O)CC)nn2CCOCC` [Example 11, N-[1-(2-ethoxyethyl)-5-ethylamino-7-(4-methylpyridin-2-ylamino)-1H-pyrazolo[4,3-d]pyrimidin-3-ylmethyl]propionamide] the value was 0.53 nM; for `CCOCCn1nc(CN(C)C(C)=O)c2nc(NC)nc(Nc3cc(C)ccn3)c21` [Example 14], 5.5 nM; for `CCNc1nc(Nc2cc(C)ccn2)c2c(n1)c(CNC(C)=O)nn2CCOCC` [Example 8, N-[1-(2-ethoxyethyl)-5-ethylamino-7-(4-methylpyridin-2-ylamino)-1H-pyrazolo[4,3-d]pyrimidin-3-ylmethyl]acetamide], 0.59 nM. The same measure for `CCOCCn1nc(CN(C)C(C)=O)c2nc(N(C)C)nc(Nc3cc(C)ccn3)c21` [Example 13]: 0.4 nM; for `CCOCCn1nc(CNC)c2nc(N(C)C)nc(Nc3cc(C)ccn3)c21` [Example 12]: 4.5 nM.

In the case of `CCOCCn1nc(CNC(C)=O)c2nc(N(C)C)nc(Nc3cc(C)ccn3)c21` [Example 6, N-[5-dimethylamino-1-(2-ethoxyethyl)-7-(4-methylpyridin-2-ylamino)-1H-pyrazolo[4,3-d]pyrimidin-3-ylmethyl]acetamide], the IC50 stood at 0.39 nM. The same measure for `CCOCCn1nc(CNCCOC)c2nc(N(C)C)nc(Nc3ccncn3)c21` [Example 33, 1-(2-ethoxyethyl)-3-[(2-methoxyethylamino)methyl]-N^5,N^5-dimethyl-N^7-pyrimidin-4-yl-1H-pyrazolo[4,3-d]pyrimidine-5,7-diamine]: over 100 nM; for `CCNCc1nn(CCOCC)c2c(Nc3ccc(C)cn3)nc(N(C)C)nc12` [Example 26]: 3.4 nM; for `CCNCc1nn(CCOCC)c2c(Nc3ccncn3)nc(N(C)C)nc12` [Example 32, 1-(2-ethoxyethyl)-3-(ethylaminomethyl)-N^5,N^5-dimethyl-N^7-(pyrimidin-4-yl)-1H-pyrazolo[4,3-d]pyrimidine-5,7-diamine]: over 100 nM. The same measure for `CCOCCn1nc(CNC(C)=O)c2nc(NC)nc(Nc3cc(C)ccn3)c21` [Example 7]: 9 nM.

For `CCOCCn1nc(CNC)c2nc(N(C)C)nc(Nc3ccncn3)c21` [Example 35, 1-(2-ethoxyethyl)-N^5,N^5-dimethyl-3-(methylaminomethyl)-N^7-pyrimidin-4-yl-1H-pyrazolo[4,3-d]pyrimidine-5,7-diamine hydrochloride], the IC50 is over 100 nM. The compound `CCNCc1nn(CCOCC)c2c(Nc3cc(C)ccn3)nc(N(C)C)nc12` [Example 31, 1-(2-ethoxyethyl)-3-(ethylaminomethyl)-N^5,N^5-dimethyl-N^7-(4-methylpyridin-2-yl)-1H-pyrazolo[4,3-d]pyrimidine-5,7-diamine] displayed an IC50 of 3.4 nM. The same measure for `CCOCCn1nc(CN(C)C)c2nc(N(C)C)nc(Nc3cc(C)ccn3)c21` [Example 28]: 6.9 nM; for `CCNc1nc(Nc2cc(C)ccn2)c2c(n1)c(CNS(C)(=O)=O)nn2CCOCC` [Example 3]: 1.1 nM; for `CCOCCn1nc(CN2CCOCC2)c2nc(N(C)C)nc(Nc3cc(C)ccn3)c21` [Example 30, 1-(2-ethoxyethyl)-N^5,N^5-dimethyl-3-[(4-morpholino)methyl]-N^7-(4-methylpyridin-2-yl)-1H-pyrazolo[4,3-d]pyrimidine-5,7-diamine]: 1.06 nM. For `CCOCCn1nc(CNC(=O)CO)c2nc(N(C)C)nc(Nc3cc(C)ccn3)c21` [Example 4, N-[5-dimethylamino-1-(2-ethoxyethyl)-7-(4-methylpyridin-2-ylamino)-1H-pyrazolo[4,3-d]pyrimidin-3-ylmethyl]-2-hydroxyacetamide] the value was 0.77 nM; for `CCOCCn1nc(CNCCOC)c2nc(N(C)C)nc(Nc3cc(C)ccn3)c21` [Example 29], 3.3 nM; for `CCOCCn1nc(CN2CCNCC2)c2nc(N(C)C)nc(Nc3cc(C)ccn3)c21` [Example 40, 1-(2-ethoxyethyl)-N^5,N^5-dimethyl-N^7-(4-methylpyridin-2-yl)-3-(piperazin-1-ylmethyl)-1H-pyrazolo[4,3-d]pyrimidine-5,7-diamine hydrochloride], 5.8 nM. With `CCNc1nc(Nc2cc(C)ccn2)c2c(n1)c(CN(C)C(C)=O)nn2CCOCC` [Example 15, N-[1-(2-ethoxyethyl)-5-ethylamino-7-(4-methylpyridin-2-ylamino)-1H-pyrazolo[4,3-d]pyrimidin-3-ylmethyl]-N-methylacetamide], the IC50 stood at 0.48 nM. For `CCOCCn1nc(CN(C)C(C)=O)c2nc(N(C)C)nc(Nc3ccncn3)c21` [Example 16, N-[5-Dimethylamino-1-(2-ethoxyethyl)-7-(pyrimidin-4-ylamino)-1H-pyrazolo[4,3-d]pyrimidin-3-ylmethyl]-N-methylacetamide] the value was 5.9 nM; for `CCOCCn1nc(CNC(=O)CN(C)C)c2nc(N(C)C)nc(Nc3cc(C)ccn3)c21` [Example 1, 2-Dimethylamino-N-[5-dimethylamino-1-(2-ethoxyethyl)-7-(4-methylpyridin-2-ylamino)-1H-pyrazolo[4,3-d]pyrimidin-3-ylmethyl]acetamide], 1.12 nM. For `CCOCCn1nc(CN2CC[C@H](OC)C2)c2nc(N(C)C)nc(Nc3cc(C)ccn3)c21` [Example 21] the value was 2 nM; for `CCOCCn1nc(CN2CC[C@@H](OC)C2)c2nc(N(C)C)nc(Nc3cc(C)ccn3)c21` [Example 22], 3.2 nM; for `CCOCCn1nc(CNS(C)(=O)=O)c2nc(N(C)C)nc(Nc3cc(C)ccn3)c21` [Example 2, N-[5-dimethylamino-1-(2-ethoxyethyl)-7-(4-methylpyridin-2-ylamino)-1H-pyrazolo[4,3-d]pyrimidin-3-ylmethyl]methanesulfonamide], 1.25 nM. For `CCOCCn1nc(CN2CCN(C)CC2)c2nc(N(C)C)nc(Nc3cc(C)ccn3)c21` [Example 18, 1-(2-Ethoxyethyl)-N^5,N^5-dimethyl-3-[(4-methylpiperazin-1-yl)methyl]-N^7-(4-methylpyridin-2-yl)-1H-pyrazolo[4,3-d]pyrimidine-5,7-diamine hydrochloride] the value was 2.3 nM.
